Measurements: patent publication US20240041042A1, “1-(PYRIDYL)-5-AZINYLPYRAZOLE DERIVATIVES, AND THEIR USE FOR CONTROL OF UNDESIRED PLANT GROWTH” (Bayer Aktiengesellschaft, priority 2020, published 2024)

Tests used:
Assay type in all cases: in vivo
[1] = system: Verconica persica (VERPE); test: Post-emergence herbicidal action against VERPE
Outline: (§1)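 Rates were 320 g/ha or below, applied as aqueous WP/EC spray with 0.5% additive (600 l/ha) onto one-leaf-stage plants. About 3 weeks later in the greenhouse, damage was scored visually against untreated plants on a 0–100% scale, where 100% means plants died.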

[2] = system: Echinochloa crus-galli (ECHCG); test: Post-emergence herbicidal action against ECHCG
Outline: as §1

[3] = system: Abutilon theophrasti (ABUTH); test: Pre-emergence herbicidal action against ABUTH; conditions: Dosage column 320 g/ha (title prints 3200 g/ha); scored visually after about 3 weeks; 100% = plants have died
Outline: (§2)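 Application rates ran to 320 g/ha or lower, with several dosages tested on the same weeds. The compound, as wettable powder or emulsion concentrate, is sprayed pre-emergence onto soil over sown seeds; greenhouse growth follows, and effect is rated visually after roughly 3 weeks.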

[4] = system: Amaranthus retroflexus (AMARE); test: Post-emergence herbicidal action against AMARE; conditions: 320 g/ha, visual rating about 3 weeks after treatment
Outline: as §1

Lolium rigidum (LOLRI) [5] = test: Post-emergence herbicidal action against LOLRI
Outline: as §1

Setaria viridis (SETVI) [6] = test: Post-emergence herbicidal action against SETVI; conditions: dosage 320 g/ha
Outline: as §1

[7] = system: Alopecurus myosuroides (ALOMY); test: Pre-emergence herbicidal action against ALOMY; conditions: scored visually after about 3 weeks, 100% = plants have died
Outline: as §2

[8] = system: Alopecurus myosuroides (ALOMY); test: Post-emergence herbicidal action against ALOMY; conditions: 320 g/ha, visual rating about 3 weeks after treatment vs untreated controls (100% = plants have died, 0% = like control plants)
Outline: as §1

[9] = system: Matricaria inodora (MATIN); test: Post-emergence herbicidal action against MATIN; conditions: dosage 320 g/ha
Outline: as §1

Avena fatua (AVEFA) [10] = test: Pre-emergence herbicidal action against AVEFA; conditions: 320 g/ha, visual scoring after about 3 weeks vs untreated controls
Outline: as §2

[11] = system: Echinochloa crus-galli (ECHCG); test: Pre-emergence herbicidal action against ECHCG
Outline: as §2

Oryza sativa (ORYSA) = conditions: crop plant compatibility, 80 g/ha, effect in comparison to untreated controls
Outline: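 Foliar application at the one-leaf stage: WP/EC formulation, 0.5% additive, 600 l/ha water. Greenhouse-grown in sandy loam. Endpoint is visual % injury relative to untreated controls at about 3 weeks.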

Setaria viridis (SETVI) [12] = test: Pre-emergence herbicidal action against SETVI
Outline: as §2

[13] = system: Verconica persica (VERPE); test: Pre-emergence herbicidal action against VERPE
Outline: as §2

[14] = system: Abutilon theophrasti (ABUTH); test: Post-emergence herbicidal action against ABUTH; conditions: visual rating about 3 weeks after treatment vs untreated controls (100% = plants have died, 0% = like control plants)
Outline: as §1

Viola tricolor (VIOTR) [15] = test: Post-emergence herbicidal action against VIOTR
Outline: as §1

[16] = system: Matricaria inodora (MATIN); test: Pre-emergence herbicidal action against MATIN
Outline: as §2

[17] = system: Polygonum convolvulus (POLCO); test: Pre-emergence herbicidal action against POLCO
Outline: as §2

Lolium rigidum (LOLRI) [18] = test: Pre-emergence herbicidal action against LOLRI
Outline: as §2

[19] = system: Amaranthus retroflexus (AMARE); test: Pre-emergence herbicidal action against AMARE; conditions: visual scoring after about 3 weeks vs untreated controls
Outline: as §2

[20] = system: Pharbitis purpurea (PHBPU); test: Pre-emergence herbicidal action against PHBPU
Outline: as §2

Viola tricolor (VIOTR) [21] = test: Pre-emergence herbicidal action against VIOTR
Outline: as §2

[22] = system: Polygonum convolvulus (POLCO); test: Post-emergence herbicidal action against POLCO; conditions: dosage 320 g/ha
Outline: as §1

Avena fatua (AVEFA) [23] = test: Post-emergence herbicidal action against AVEFA; conditions: 320 g/ha, visual rating about 3 weeks after treatment
Outline: as §1

COC(=O)CNC(=O)[C@@H](C)Oc1nn(-c2ccccn2)c(-c2cncc(F)c2)c1Cl [Example I-185]
20%: Post-emergence action against ORYSA in % (Oryza sativa (ORYSA))
100%: Pre-emergence action against SETVI in % (Setaria viridis (SETVI) [12]; dosage 320 g/ha) | Pre-emergence action against LOLRI in % (Lolium rigidum (LOLRI) [18]; dosage 80 g/ha) | Pre-emergence action against LOLRI in % (Lolium rigidum (LOLRI) [18]; dosage 320 g/ha) | Pre-emergence action against AMARE in % ([19]; 80 g/ha) | Pre-emergence action against AMARE in % ([19]; 320 g/ha) | Pre-emergence action against VIOTR in % (Viola tricolor (VIOTR) [21]; 320 g/ha, Viola tricolor) | Pre-emergence action against VIOTR in % (Viola tricolor (VIOTR) [21]; dosage 80 g/ha)
80%: Post-emergence action against VERPE in % ([1]; 320 g/ha, VERPE) | Post-emergence action against VERPE in % ([1]; dosage 80 g/ha) | Post-emergence action against ECHCG in % ([2]; dosage 80 g/ha) | Pre-emergence action against ABUTH [3] | Post-emergence action against AMARE in % [4] | Post-emergence action against LOLRI in % (Lolium rigidum (LOLRI) [5]; dosage 80 g/ha) | Post-emergence action against LOLRI in % (Lolium rigidum (LOLRI) [5]; dosage 320 g/ha) | Post-emergence action against SETVI in % (Setaria viridis (SETVI) [6]) | Pre-emergence action against ALOMY ([7]; 80 g/ha) | Post-emergence action against ALOMY in % [8] | Post-emergence action against MATIN in % [9] | Pre-emergence action against ECHCG in % ([11]; dosage 80 g/ha) | Pre-emergence action against SETVI in % (Setaria viridis (SETVI) [12]; dosage 80 g/ha) | Pre-emergence action against VERPE in % ([13]; dosage 80 g/ha) | Post-emergence action against ABUTH in % ([14]; 80 g/ha) | Post-emergence action against ABUTH in % ([14]; 320 g/ha) | Post-emergence action against VIOTR in % (Viola tricolor (VIOTR) [15]; 80 g/ha) | Post-emergence action against VIOTR in % (Viola tricolor (VIOTR) [15]; 320 g/ha) | Pre-emergence action against MATIN in % ([16]; dosage 80 g/ha) | Pre-emergence action against POLCO in % ([17]; dosage 80 g/ha) | Pre-emergence action against PHBPU in % ([20]; dosage 80 g/ha) | Post-emergence action against POLCO in % [22] | Post-emergence action against AVEFA in % (Avena fatua (AVEFA) [23])
90%: Post-emergence action against ECHCG in % ([2]; dosage 320 g/ha) | Pre-emergence action against ALOMY ([7]; 320 g/ha) | Pre-emergence action against AVEFA in % (Avena fatua (AVEFA) [10]) | Pre-emergence action against ECHCG in % ([11]; dosage 320 g/ha) | Pre-emergence action against VERPE in % ([13]; dosage 320 g/ha) | Pre-emergence action against MATIN in % ([16]; dosage 320 g/ha) | Pre-emergence action against POLCO in % ([17]; dosage 320 g/ha) | Pre-emergence action against PHBPU in % ([20]; dosage 320 g/ha)
